Six compounds from patent publication US20230382923A1, “FUSED TETRACYCLIC QUINAZOLINE DERIVATIVES AS INHIBITORS OF ERBB2” (EnLiven Therapeutics, Inc., priority 2021, published 2023) can be followed below.

Where two headings read alike, the source gives them in different places.

The subject of one test is Ba/F3 ERBB2 YVMA. The test can be described thus: Cell viability assay (CellTiter Glo, 72 hours). It is filed as cell-based, mouse. The conditions noted are these: Mus musculus, BaF3, 72 h. Here is the method:
Cells were treated with compounds, and cell viability was measured as a metric of kinase inhibition.
BT-474, A431, MDA-MB-175VII, NCI-H1781, MCF7, and Ba/F3 cell lines were tested. The Ba/F3 cell line is IL-3-dependent mouse cell line derived from the C3H mouse strain. Ba/F3 cell lines were engineered to express human ERBB2 or EGFR kinases, rendering the cells IL-3 independent. The lines were generated via retroviral transduction utilizing a Moloney murine leukemia virus (MMLV) promoter, and constructs are stably integrated into the cell genome. The sequences of the ERBB2 and EGFR genes used were NCBI Reference Sequences NM_004448.3 and NM_005228.3, respectively.
BT-474, A431, MDA-MB-175VII, NCI-H1781 and MCF7 cells were grown in the appropriate growth medium as described in Table B2 below, and harvested at 50-80% confluence. BT-474, A431, MDA-MB-175VII, NCI-H1781 and MCF7 cells were counted and seeded at 2,000 or 1,500 cells per well in 384-well tissue culture plates (see Table B2). Similarly, Ba/F3 cell lines engineered to express EGFR, ERBB2, or ERBB2 mutants were grown, harvested, counted and seeded at 3000 cells per well in 96-well plates. A subset of wells contained media only (low control, “LC”).
Table B1 provides the growth media and number of cells seeded per well for the each cell line.
Compounds were dissolved in DMSO and serially diluted. Serially-diluted compound or a DMSO only control (high control, “HC”) was added to the plated cells in each well. Compounds were tested at concentrations of about 10 μM to 0.51 nM, using three-fold dilutions. The final proportion of DMSO never exceeded 0.1%.
Plates were placed in a 37° C., 5% CO2 incubator for 72 hours. Plates were then removed from the incubator and equilibrated for 15 minutes at room temperature. 40 μl of CellTiter Glo reagent (Promega) was added to measure the relative level of metabolically active cells by quantifying intracellular ATP concentrations. Plates were incubated for 30 minutes at room temperature, and luminescence was measured. Percent viability was normalized to a vehicle control only using the following formula: % viability=100×(LumSample−LumLC)/(LumHC−LumLC). Graphical curves were fitted using a nonlinear regression model with a sigmoidal dose response.

In test [1] the target is phosphorylated ERBB2 (pERBB2) (Homo sapiens (Human), UniProt P04626). The test can be described thus: Detection of phosphorylated ERBB2 (pERBB2) by ELISA in BT-474 cells. The conditions noted are these: four hours incubation with compound. The test is classed as cell-based. The gist of the method: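 BT-474 cells were exposed to serially diluted compounds for 4 h at 37 °C, then lysed. Phospho-ERBB2 in lysates was captured by ELISA and detected with an HRP anti-phosphotyrosine antibody and TMB.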
Background: In an ELISA, binding on a coated surface is turned into a signal by an enzyme label.

For test [2], the target named is phosphorylated EGFR (pEGFR) (Homo sapiens (Human), UniProt P00533). The test is described as follows: Detection of phosphorylated EGFR (pEGFR) by AlphaLISA in A431 cells. It is filed as cell-based. Conditions: A431 cells (10% FBS), 4 hours incubation, EGF 30 ng/mL for 10 minutes. The gist of the method: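 A431 cells in 10% FBS exposed to compound for 4 h at 37 °C, then stimulated 10 min with 30 ng/mL EGF. Lysates assayed for phospho-EGFR by AlphaLISA. % inhibition relative to DMSO and staurosporine controls; IC50 from four-parameter curve fit.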
For orientation: Alpha assays give light when donor and acceptor beads are brought close together.

[3] abbreviates: read-out: Ba/F3 ERBB2 YVMA, IC50, nM.

Sequence of phosphorylated EGFR (pEGFR) (P00533 25-1210): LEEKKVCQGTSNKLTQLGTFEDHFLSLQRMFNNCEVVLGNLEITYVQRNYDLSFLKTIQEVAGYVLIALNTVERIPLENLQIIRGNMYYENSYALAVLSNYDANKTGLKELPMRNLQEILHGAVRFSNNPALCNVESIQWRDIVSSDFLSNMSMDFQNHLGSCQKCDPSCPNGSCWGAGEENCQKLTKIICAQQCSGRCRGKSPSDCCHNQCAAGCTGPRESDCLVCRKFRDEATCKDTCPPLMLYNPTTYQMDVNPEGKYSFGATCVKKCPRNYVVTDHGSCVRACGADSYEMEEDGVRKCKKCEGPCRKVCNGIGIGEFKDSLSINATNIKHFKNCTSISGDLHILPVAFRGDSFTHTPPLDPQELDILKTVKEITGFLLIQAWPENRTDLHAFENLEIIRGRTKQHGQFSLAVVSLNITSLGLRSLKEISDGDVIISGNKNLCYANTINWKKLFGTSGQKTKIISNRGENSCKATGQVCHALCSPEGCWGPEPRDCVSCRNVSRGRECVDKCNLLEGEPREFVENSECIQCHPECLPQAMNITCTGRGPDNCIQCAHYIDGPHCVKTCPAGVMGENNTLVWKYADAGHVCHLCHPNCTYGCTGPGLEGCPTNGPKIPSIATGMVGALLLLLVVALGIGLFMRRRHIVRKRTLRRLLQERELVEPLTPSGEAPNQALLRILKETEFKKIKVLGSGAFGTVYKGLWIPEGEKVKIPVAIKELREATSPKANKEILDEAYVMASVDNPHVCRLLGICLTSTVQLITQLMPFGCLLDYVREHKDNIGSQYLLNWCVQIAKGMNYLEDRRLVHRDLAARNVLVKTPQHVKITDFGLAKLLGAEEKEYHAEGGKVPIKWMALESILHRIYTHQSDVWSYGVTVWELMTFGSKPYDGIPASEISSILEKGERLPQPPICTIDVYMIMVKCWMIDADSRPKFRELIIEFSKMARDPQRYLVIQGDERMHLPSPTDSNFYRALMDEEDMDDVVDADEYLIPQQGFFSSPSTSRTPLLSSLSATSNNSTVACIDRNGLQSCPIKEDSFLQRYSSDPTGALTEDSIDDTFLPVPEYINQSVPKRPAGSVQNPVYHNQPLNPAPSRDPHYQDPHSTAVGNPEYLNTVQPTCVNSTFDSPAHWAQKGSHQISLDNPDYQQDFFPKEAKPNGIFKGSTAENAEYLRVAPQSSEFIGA
Sequence of phosphorylated ERBB2 (pERBB2) (P04626 23-1255): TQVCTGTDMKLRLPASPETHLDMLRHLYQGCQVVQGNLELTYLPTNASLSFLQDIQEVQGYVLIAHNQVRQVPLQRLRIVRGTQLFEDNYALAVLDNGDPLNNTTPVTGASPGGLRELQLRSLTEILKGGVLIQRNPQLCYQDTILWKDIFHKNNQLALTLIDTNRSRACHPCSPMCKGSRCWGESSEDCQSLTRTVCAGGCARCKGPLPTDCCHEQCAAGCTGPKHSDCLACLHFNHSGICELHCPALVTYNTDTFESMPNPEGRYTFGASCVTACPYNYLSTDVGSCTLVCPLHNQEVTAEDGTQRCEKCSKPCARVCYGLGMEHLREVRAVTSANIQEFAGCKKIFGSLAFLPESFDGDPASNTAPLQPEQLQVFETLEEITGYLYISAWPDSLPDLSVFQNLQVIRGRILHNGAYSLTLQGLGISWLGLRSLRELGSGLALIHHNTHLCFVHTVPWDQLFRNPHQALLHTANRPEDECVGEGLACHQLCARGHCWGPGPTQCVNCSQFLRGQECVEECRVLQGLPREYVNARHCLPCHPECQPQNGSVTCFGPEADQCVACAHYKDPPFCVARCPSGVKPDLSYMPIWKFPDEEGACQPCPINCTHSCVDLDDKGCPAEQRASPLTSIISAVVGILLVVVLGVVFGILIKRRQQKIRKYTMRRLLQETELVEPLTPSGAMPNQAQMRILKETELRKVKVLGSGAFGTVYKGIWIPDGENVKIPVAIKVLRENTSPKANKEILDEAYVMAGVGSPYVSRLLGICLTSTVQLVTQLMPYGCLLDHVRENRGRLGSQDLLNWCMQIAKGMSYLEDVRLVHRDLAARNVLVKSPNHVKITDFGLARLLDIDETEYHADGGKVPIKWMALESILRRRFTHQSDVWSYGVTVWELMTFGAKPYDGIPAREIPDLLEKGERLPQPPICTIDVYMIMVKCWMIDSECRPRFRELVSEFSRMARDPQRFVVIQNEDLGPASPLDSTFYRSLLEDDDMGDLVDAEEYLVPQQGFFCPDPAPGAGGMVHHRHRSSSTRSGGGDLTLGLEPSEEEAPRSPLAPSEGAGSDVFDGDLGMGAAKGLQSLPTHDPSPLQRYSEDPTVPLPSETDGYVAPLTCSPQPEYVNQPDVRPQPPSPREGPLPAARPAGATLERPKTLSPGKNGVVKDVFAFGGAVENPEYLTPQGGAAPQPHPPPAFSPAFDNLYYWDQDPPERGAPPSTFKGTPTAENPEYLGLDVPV

In the case of `C=CC(=O)N1CCN2CC1COc1cc3ncnc(Nc4ccc(Oc5ccc(CC)nc5)c(C)c4)c3nc12` (stereo in doubt) [Compound 22, 1-((10S)-4-((4-((6-ethylpyridin-3-yl)oxy)-3-methylphenyl)amino)-7,8,10,11-tetrahydro-9H-6,10-methanopyrimido[4′,5′:5,6]pyrido[3,2-b][1,4,7]oxadiazonin-9-yl)prop-2-en-1-one], the IC50 came to 56.1 nM in the test with Ba/F3 ERBB2 YVMA (setting [3]), 0.07 µM in test [1] and 0.684 µM in test [2].
On to `C=CC(=O)N1CCN2CC1COc1cc3ncnc(Nc4ccc(Oc5ccc6c(c5)ncn6C)c(C)c4)c3nc12` (stereo in doubt) [Compound 14, 1-((10S)-4-((3-methyl-4-((1-methyl-1H-benzo[d]imidazol-5-yl)oxy)phenyl)amino)-7,8,10,11-tetrahydro-9H-6,10-methanopyrimido[4′,5′:5,6]pyrido[3,2-b][1,4,7]oxadiazonin-9-yl)prop-2-en-1-one], for which the IC50 in the test with Ba/F3 ERBB2 YVMA (setting [3]) amounted to 21.6 nM; in test [1], 0.0438 µM; in test [2] it was 0.532 µM.
As for `Cc1cc(Nc2ncnc3cc4c(nc23)N2CCN(C(=O)/C=C/CN3CCC3)C(CO4)C2)ccc1Oc1ccn2ncnc2c1` (stereo in doubt) [Compound 26, (E)-1-((10S)-4-((4-([1,2,4]triazolo[1,5-a]pyridin-7-yloxy)-3-methylphenyl)amino)-7,8,10,11-tetrahydro-9H-6,10-methanopyrimido[4′,5′:5,6]pyrido[3,2-b][1,4,7]oxadiazonin-9-yl)-4-(azetidin-1-yl)but-2-en-1-one], the IC50 in the test on Ba/F3 ERBB2 YVMA (setting [3]) is 24.9 nM; in test [1], 0.0411 µM; in test [2], more than 10 µM.
As for `C=CC(=O)N1CCN2CC1COc1cc3ncnc(Nc4ccc(Oc5ccn6ncnc6c5)c(C)c4)c3cc12` (stereo in doubt) [Compound 4, 1-((10S)-4-((4-([1,2,4]triazolo[1,5-a]pyridin-7-yloxy)-3-methylphenyl)amino)-7,8,10,11-tetrahydro-9H-6,10-methano[1,4,7]oxadiazonino[3,2-g]quinazolin-9-yl)prop-2-en-1-one], the IC50 is 8.63 nM with Ba/F3 ERBB2 YVMA (setting [3]), 0.00736 µM in test [1] and 1.86 µM in test [2].
For the compound `Cc1cc(Nc2ncnc3cc4c(cc23)N2CCN(C(=O)/C=C/CN(C)C)C(CO4)C2)ccc1Oc1ccn2ncnc2c1` (stereo in doubt) [Compound 8, (E)-1-((10R)-4-((4-([1,2,4]triazolo[1,5-a]pyridin-7-yloxy)-3-methylphenyl)amino)-7,8,10,11-tetrahydro-9H-6,10-methano[1,4,7]oxadiazonino[3,2-g]quinazolin-9-yl)-4-(dimethylamino)but-2-en-1-one], the IC50 was more than 500 nM in the test on Ba/F3 ERBB2 YVMA (Ba/F3 cells engineered to express human ERBB2 YVMA mutant, 72 hours, CellTiter Glo viability, read-out: Ba/F3 ERBB2 YVMA, IC50); 0.547 µM in test [1]; more than 10 µM in test [2].
On to `C=CC(=O)N1CCN2CC1COc1cc3ncnc(Nc4ccc(Oc5ccc6c(c5)ncn6C)c(C)c4)c3cc12` (stereo in doubt) [Compound 3, 1-((10S)-4-((3-methyl-4-((1-methyl-1H-benzo[d]imidazol-5-yl)oxy)phenyl)amino)-7,8,10,11-tetrahydro-9H-6,10-methano[1,4,7]oxadiazonino[3,2-g]quinazolin-9-yl)prop-2-en-1-one], for which the IC50 in the test on Ba/F3 ERBB2 YVMA (setting [3]) was 18 nM; in test [1], 0.0283 µM; in test [2], 1.47 µM.
